Where two headings read alike, the source gives them in different places.
How the values were obtained:
[1] = test system: AP-1060 (ETV6-NTRK3); assay: Cell viability assay; details: read-out: IC50 in cell proliferation assay
[2] = test system: 134 cancer cell lines; assay: Cell viability assay (ATPlite, 72 hours), IC50 on cancer cell line panel

C[C@H]1Oc2cc(cnc2N)-c2c(nn(C)c2C#N)CN(C)C(=O)c2ccc(F)cc21 [lorlatinib]
IC50 [1]: 10.7 µM | IC50 ([2]; HEC-6, read-out: IC50 in cell proliferation assay): > 31.6 µM | IC50 ([2]; Homo sapiens, 769-P, read-out: IC50 in cell proliferation assay): > 31.6 µM | IC50 ([2]; Homo sapiens, 786-0, read-out: IC50 in cell proliferation assay): > 31.6 µM | IC50 ([2]; Homo sapiens, A 172, read-out: IC50 in cell proliferation assay): > 31.6 µM | IC50 ([2]; Homo sapiens, A204, read-out: IC50 in cell proliferation assay): > 31.6 µM | IC50 ([2]; Homo sapiens, A498, read-out: IC50 in cell proliferation assay): > 31.6 µM | IC50 ([2]; Homo sapiens, A549, read-out: IC50 in cell proliferation assay): 2.3 µM | IC50 ([2]; Homo sapiens, A704, read-out: IC50 in cell proliferation assay): > 31.6 µM | IC50 ([2]; Homo sapiens, A-375, read-out: IC50 in cell proliferation assay): 18.8 µM | IC50 ([2]; Homo sapiens, A-427, read-out: IC50 in cell proliferation assay): 27.4 µM | IC50 ([2]; Homo sapiens, ACHN, read-out: IC50 in cell proliferation assay): > 31.6 µM | IC50 ([2]; Homo sapiens, AN3-CA, read-out: IC50 in cell proliferation assay): > 31.6 µM | IC50 ([2]; Homo sapiens, ASPC1, read-out: IC50 in cell proliferation assay): 28.2 µM | IC50 ([2]; Homo sapiens, AU565, read-out: IC50 in cell proliferation assay): > 31.6 µM | IC50 ([2]; Homo sapiens, BT-20, read-out: IC50 in cell proliferation assay): > 31.6 µM | IC50 ([2]; Homo sapiens, BT-474, read-out: IC50 in cell proliferation assay): > 31.6 µM | IC50 ([2]; Homo sapiens, BT-549, read-out: IC50 in cell proliferation assay): > 31.6 µM | IC50 ([2]; Homo sapiens, BXPC-3, read-out: IC50 in cell proliferation assay): 0.049 µM | IC50 ([2]; Homo sapiens, C-33-A, read-out: IC50 in cell proliferation assay): > 31.6 µM | IC50 ([2]; Homo sapiens, CAL-27, read-out: IC50 in cell proliferation assay): > 31.6 µM | IC50 ([2]; Homo sapiens, CCF-STTG1, read-out: IC50 in cell proliferation assay): > 31.6 µM | IC50 ([2]; Homo sapiens, CCRF-CEM, read-out: IC50 in cell proliferation assay): > 31.6 µM | IC50 ([2]; Homo sapiens, COLO 205, read-out: IC50 in cell proliferation assay): 11.9 µM | IC50 ([2]; Homo sapiens, COLO-829, read-out: IC50 in cell proliferation assay): > 31.6 µM | IC50 ([2]; Homo sapiens, DLD-1, read-out: IC50 in cell proliferation assay): > 31.6 µM | IC50 ([2]; Homo sapiens, DU-145, read-out: IC50 in cell proliferation assay): 25.9 µM | IC50 ([2]; Homo sapiens, DU-4475, read-out: IC50 in cell proliferation assay): 25.9 µM | IC50 ([2]; Homo sapiens, Daoy, read-out: IC50 in cell proliferation assay): > 31.6 µM | IC50 ([2]; Homo sapiens, DoTc2-4510, read-out: IC50 in cell proliferation assay): 0.024 µM | IC50 ([2]; Homo sapiens, EOL1, read-out: IC50 in cell proliferation assay): 9.05 µM | IC50 ([2]; Homo sapiens, FaDu, read-out: IC50 in cell proliferation assay): > 31.6 µM | IC50 ([2]; Homo sapiens, G-361, read-out: IC50 in cell proliferation assay): > 31.6 µM | IC50 ([2]; Homo sapiens, HCC827, read-out: IC50 in cell proliferation assay): 17.1 µM | IC50 ([2]; Homo sapiens, HCC4006, read-out: IC50 in cell proliferation assay): 17.8 µM | IC50 ([2]; Homo sapiens, HCT-15, read-out: IC50 in cell proliferation assay): > 31.6 µM | IC50 ([2]; Homo sapiens, HCT-116, read-out: IC50 in cell proliferation assay): 23.8 µM | IC50 ([2]; Homo sapiens, HEC-1, read-out: IC50 in cell proliferation assay): 9.24 µM | IC50 ([2]; Homo sapiens, HEC-1B, read-out: IC50 in cell proliferation assay): > 31.6 µM | IC50 ([2]; Homo sapiens, HL-60, read-out: IC50 in cell proliferation assay): 28.1 µM | IC50 ([2]; Homo sapiens, HT, read-out: IC50 in cell proliferation assay): > 31.6 µM | IC50 ([2]; Homo sapiens, HT-1080, read-out: IC50 in cell proliferation assay): > 31.6 µM | IC50 ([2]; Homo sapiens, Hs746T, read-out: IC50 in cell proliferation assay): 9.43 µM | IC50 ([2]; Homo sapiens, Hs-578T, read-out: IC50 in cell proliferation assay): > 31.6 µM | IC50 ([2]; Homo sapiens, HuTu80, read-out: IC50 in cell proliferation assay): 7.5 µM | IC50 ([2]; Homo sapiens, J82, read-out: IC50 in cell proliferation assay): > 31.6 µM | IC50 ([2]; Homo sapiens, Jurkat E6.1, read-out: IC50 in cell proliferation assay): > 31.6 µM | IC50 ([2]; Homo sapiens, K562, read-out: IC50 in cell proliferation assay): 9.61 µM | IC50 ([2]; Homo sapiens, KATO III, read-out: IC50 in cell proliferation assay): > 31.6 µM | IC50 ([2]; Homo sapiens, KG-1, read-out: IC50 in cell proliferation assay): 9.21 µM | IC50 ([2]; Homo sapiens, KLE, read-out: IC50 in cell proliferation assay): > 31.6 µM | IC50 ([2]; Homo sapiens, KMS-11, read-out: IC50 in cell proliferation assay): 17.7 µM | IC50 ([2]; Homo sapiens, KU812, read-out: IC50 in cell proliferation assay): > 31.6 µM | IC50 ([2]; Homo sapiens, Kasumi 1, read-out: IC50 in cell proliferation assay): > 31.6 µM | IC50 ([2]; Homo sapiens, LC-2-ad, read-out: IC50 in cell proliferation assay): 20.4 µM | IC50 ([2]; Homo sapiens, LNCaP-Clone-FGC, read-out: IC50 in cell proliferation assay): > 31.6 µM | IC50 ([2]; Homo sapiens, LS174T, read-out: IC50 in cell proliferation assay): 14.2 µM | IC50 ([2]; Homo sapiens, LS-411N, read-out: IC50 in cell proliferation assay): 23.6 µM | IC50 ([2]; Homo sapiens, LoVo, read-out: IC50 in cell proliferation assay): > 31.6 µM
